Experimental data as given in PMC11946893 (Nature, 2025).
Peptide text beside a SMILES is read from it.

Columns and labels:
S. enterica = experiment: Bacterial growth in conditioned medium; type: cell-based, Salmonella enterica
M. luteus = experiment: Intracellular infection assay; type: cell-based, M. luteus in A549 cells; conditions: A549 cells expressing dTAG–PPP1CB pre-incubated 1 h with dTAG^V-1
S. typhimurium = experiment: Intracellular infection assay; type: cell-based, S. typhimurium SL1344 in A549 cells; conditions: A549 cells expressing dTAG–PPP1CB pre-incubated 1 h with dTAG^V-1
CaCo-2 monolayer = experiment: TEER assay, CaCo-2 monolayer cocultured with P. aeruginosa; type: cell-based, human; conditions: P. aeruginosa coculture, 6 h, n = 3

CC(=O)N[C@@H](CC(C)C)C(=O)N[C@@H](CC(C)C)C(=O)N[C@H](C=O)CCCNC(=N)N [leupeptin]
bacterial growth in conditioned medium (S. enterica; medium from cells treated with leupeptin 20 µM for 6 h): increase in bacterial growth

CC[C@H](C(=O)N1CCCC[C@H]1C(=O)O[C@H](CCc1ccc(OC)c(OC)c1)c1ccccc1OCC(=O)NCCCCCCC(=O)N[C@H](C(=O)N1C[C@H](O)C[C@H]1C(=O)N[C@@H](C)c1ccc(-c2scnc2C)cc1)C(C)(C)C)c1cc(OC)c(OC)c(OC)c1 [dTAG^V-1]
intracellular bacterial infection (CFU counts) (M. luteus): attenuated intracellular bacterial infection significantly | reduction of bacterial growth in conditioned medium (S. enterica; A549 cells expressing dTAG–PPP1CB, 500 nM dTAG^V-1 for 6 h vs DMSO): 20% | intracellular bacterial infection (CFU counts, imaging) (S. typhimurium): attenuated intracellular bacterial infection significantly

CC[C@H](C)[C@H](NC(=O)[C@H](CC(N)=O)NC(=O)[C@H](Cc1ccccc1)NC(=O)[C@H](CCCNC(=N)N)NC(=O)[C@H](CCCNC(=N)N)NC(=O)[C@@H](N)CCCCN)C(=O)N[C@@H](CCCCN)C(=O)N[C@@H](CC(C)C)C(=O)N[C@@H](Cc1c[nH]c2ccccc12)C(=O)N[C@@H](CCCCN)C(=O)N[C@H](C(=O)N[C@@H](Cc1ccccc1)C(=O)O)[C@@H](C)O [PPP1CB] (H-KRRFNIKLWKTF-OH)
disruption of CaCo-2 barrier integrity by P. aeruginosa (TEER barrier index) (CaCo-2 monolayer): fully abolished
